These results are taken from patent US9896443B2, “Perforin inhibiting benzenesulfonamide compounds, preparation and uses thereof” (Peter MacCallum Cancer Institute, priority 2012, dated 2018).

Structures can show the parent of a compound that is named as a salt. Where two headings read alike, the source gives them in different places.

For test [1], the system named is KHYG-1 NK cell-mediated lysis of K562 cells. As to the kind of experiment: Inhibition of KHYG-1 NK cell-mediated lysis of K562 cells (51Cr release). In kind it is cell-based. The settings on record: K562 target cells, Effector:Target 2:1, 4 hours at 37° C. The method, then:
Inhibition of KHYG-1 NK Cell-Mediated Lysis of K562 Cells.
Test compounds were added to KHYG-1 cells at various concentrations up to 20 µM and incubated at RT for 20 minutes. 1×10^6 K562 target cells were labelled with 75 μCi ^51Cr in 200 μl RPMI for 90 mins at 37° C., cells were washed as described above and resuspended in 5 ml RPMI+0.1% BSA. 50 μl of ^51Cr labelled K562 leukemia target cells were added to each well of the KHYG-1 plate (Effector:Target 2:1) and incubated at 37° C. for 4 hours. ^51Cr release was assayed using a Skatron Harvesting Press and radioactivity estimated on a Wallac Wizard 1470 Automatic Gamma counter (Turku, Finland). The percentage of specific cytotoxicity was calculated by the formula: […]

Test [2] has as its target recombinant perforin (UniProt P10820). The class given is cell-based. As to the method:
Inhibition of perforin-mediated lysis of Jurkat cells.
The ability of the compounds to inhibit the lysis of nucleated (Jurkat T lymphoma) cells in the presence of 0.1% BSA, as measured by release of ^51Cr was measured. Jurkat target cells were labelled by incubation in medium with 100 μCi ^51Cr for one hour. The cells were then washed three times to remove unincorporated isotope and re-suspended at 1×10^5 cells per mL in RPMI buffer supplemented with 0.1% BSA. […] Each data point was performed in triplicate and an IC50 was calculated from the range of concentrations described to above.

Setting [3] is: lysis of Jurkat T lymphoma cells by recombinant perforin, 0.1% BSA, 30 min pre-incubation, 4 hours at 37° C.; read-out: Jurkat IC50.

Sequence of recombinant perforin (P10820 whole entry): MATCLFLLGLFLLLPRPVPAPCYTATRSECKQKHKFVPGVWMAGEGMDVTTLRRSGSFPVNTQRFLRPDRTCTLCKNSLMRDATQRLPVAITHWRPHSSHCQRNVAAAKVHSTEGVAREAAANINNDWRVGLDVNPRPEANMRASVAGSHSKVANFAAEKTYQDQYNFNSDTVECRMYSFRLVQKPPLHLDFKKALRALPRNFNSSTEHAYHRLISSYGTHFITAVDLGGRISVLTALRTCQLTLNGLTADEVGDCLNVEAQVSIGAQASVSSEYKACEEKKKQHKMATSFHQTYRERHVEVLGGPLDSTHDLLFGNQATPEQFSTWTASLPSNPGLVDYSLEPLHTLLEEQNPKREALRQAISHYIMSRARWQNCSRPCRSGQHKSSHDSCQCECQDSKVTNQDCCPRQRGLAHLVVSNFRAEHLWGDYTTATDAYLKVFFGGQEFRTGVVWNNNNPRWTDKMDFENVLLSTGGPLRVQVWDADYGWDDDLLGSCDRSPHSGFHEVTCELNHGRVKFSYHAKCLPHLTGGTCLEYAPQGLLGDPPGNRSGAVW

The term inhibition denotes the change of the read-out against control, counted positive when it falls. A high value points to a strong effect. Molecule `CN1Cc2cc(-c3ccc(-c4cncc(NS(=O)(=O)c5ccc(F)cc5F)c4)s3)ccc2C1=O` [Compound 1, 2,4-Difluoro-N-(5-(5-(2-methyl-1-oxoisoindolin-5-yl)thiophen-2-yl)pyridin-3-yl)benzenesulfonamide] yielded an inhibition at 20 µM in test [1] (4 h) of 46%.
What is called IC50 is the concentration that gives 50% inhibition. Regarding `CN1Cc2cc(-c3ccc(-c4cncc(NS(=O)(=O)c5ccc(F)cc5)c4)s3)ccc2C1=O` [Compound 6, 4-Fluoro-N-(5-(5-(2-methyl-1-oxoisoindolin-5-yl)thiophen-2-yl)pyridin-3-yl)benzene-sulfonamide], the inhibition at 20 µM in test [1] (4 h) came to 10%. Besides, the IC50 in test [2] (setting [3]) came to 9.65 µM.
For `CN1Cc2cc(-c3ccc(-c4cncc(NS(=O)(=O)c5c(F)cc(F)cc5F)c4)s3)ccc2C1=O` [Compound 8, 2,4,6-Trifluoro-N-(5-(5-(2-methyl-1-oxoisoindolin-5-yl)thiophen-2-yl)pyridin-3-yl)benzene-sulfonamide] the same measures were 52% and 1.76 µM.
For `CN1Cc2cc(-c3ccc(-c4cncc(NS(=O)(=O)c5ccc(Cl)cc5)c4)s3)ccc2C1=O` [Compound 11, 4-Chloro-N-(5-(5-(2-methyl-1-oxoisoindolin-5-yl)thiophen-2-yl)pyridin-3-yl)benzenesulfonamide], the inhibition at 20 µM in test [1] turned out to be 17%. The IC50 in test [2] (setting [3]) was 5.39 µM.
For the molecule `CN1Cc2cc(-c3ccc(-c4cncc(NS(=O)(=O)c5ccc(Cl)cc5)c4)s3)ccc2C1=O` [Compound 11.Na, 4-Chloro-N-(5-(5-(2-methyl-1-oxoisoindolin-5-yl)thiophen-2-yl)pyridin-3-yl)benzenesulfonamide], testing at 20 µM in test [1] (4 h) gave an inhibition of 14%. The IC50 in test [2] (setting [3]) worked out at 8.28 µM.
With `CN1Cc2cc(-c3ccc(-c4cncc(NS(=O)(=O)c5cccc(Cl)c5F)c4)s3)ccc2C1=O` [Compound 14, 3-Chloro-2-fluoro-N-(5-(5-(2-methyl-1-oxoisoindolin-5-yl)thiophen-2-yl)pyridin-3-yl)benzenesulfonamide], the IC50 in test [2] (setting [3]) was 13 µM.
The molecule `COc1ccc(S(=O)(=O)Nc2cncc(-c3ccc(-c4ccc5c(c4)CN(C)C5=O)s3)c2)cc1OC` [Compound 21.Na, 3,4-Dimethoxy-N-(5-(5-(2-methyl-1-oxoisoindolin-5-yl)thiophen-2-yl)pyridin-3-yl)benzenesulfonamide, sodium salt] yielded an inhibition at 20 µM in test [1] (4 h) of 31%.
`CN1Cc2cc(-c3ccc(-c4cncc(NS(=O)(=O)c5ccccc5[N+](=O)[O-])c4)s3)ccc2C1=O` [Compound 28, N-(5-(5-(2-Methyl-1-oxoisoindolin-5-yl)thiophen-2-yl)pyridin-3-yl)-2-nitrobenzenesulfonamide] gave an inhibition at 20 µM in test [1] (4 h) of 71%. Further, the IC50 in test [2] (setting [3]) was 6.65 µM.
For `CN1Cc2cc(-c3ccc(-c4cncc(NS(=O)(=O)c5ccc([N+](=O)[O-])cc5)c4)s3)ccc2C1=O` [Compound 29, N-(5-(5-(2-Methyl-1-oxoisoindolin-5-yl)thiophen-2-yl)pyridin-3-yl)-4-nitrobenzenesulfonamide] the same measures were 48% and 2.74 µM.
On to `CN1Cc2cc(-c3ccc(-c4cncc(NS(=O)(=O)c5ccc([N+](=O)[O-])cc5)c4)s3)ccc2C1=O` [Compound 29.Na, N-(5-(5-(2-Methyl-1-oxoisoindolin-5-yl)thiophen-2-yl)pyridin-3-yl)-4-nitrobenzenesulfonamide], for which the “Inhibition of KHYG-1 at 20 μM (%)” value in test [1] came out at 49%. The IC50 in test [2] (setting [3]) came out at 3.34 µM.
Molecule `CN1Cc2cc(-c3ccc(-c4cncc(NS(=O)(=O)c5ccc(C#N)cc5)c4)s3)ccc2C1=O` [Compound 30, 4-Cyano-N-(5-(5-(2-methyl-1-oxoisoindolin-5-yl)thiophen-2-yl)pyridin-3-yl)benzenesulfonamide] displayed an inhibition at 20 µM in test [1] (4 h) of 49%. Further, the IC50 in test [2] (setting [3]) worked out at 5.17 µM.
In the case of `CN1Cc2cc(-c3ccc(-c4cnc(F)c(NS(=O)(=O)c5ccc(F)cc5F)c4)s3)ccc2C1=O` [Compound 39, 2,4-Difluoro-N-(2-fluoro-5-(5-(2-methyl-1-oxoisoindolin-5-yl)thiophen-2-yl)pyridin-3-yl)benzenesulphonamide], the inhibition at 20 µM in test [1] (4 h) stood at 56%. In test [2] (setting [3]), the IC50 worked out at 1.99 µM.
Take `CN1Cc2cc(-c3ccc(-c4cnc(F)c(NS(=O)(=O)c5ccc(F)cc5F)c4)s3)ccc2C1=O` [Compound 39.Na, 2,4-Difluoro-N-(2-fluoro-5-(5-(2-methyl-1-oxoisoindolin-5-yl)thiophen-2-yl)pyridin-3-yl)benzenesulphonamide]: in test [1], the “Inhibition of KHYG-1 at 20 μM (%)” value is reported as 48%. Further, the IC50 in test [2] (setting [3]) is 0.75 µM.
The molecule `CN1Cc2cc(-c3ccc(-c4cnc(Cl)c(NS(=O)(=O)c5ccc(F)cc5F)c4)s3)ccc2C1=O` [Compound 40, 2,4-Difluoro-N-(2-chloro-5-(5-(2-methyl-1-oxoisoindolin-5-yl)thiophen-2-yl)pyridin-3-yl)benzenesulphonamide] had an inhibition at 20 µM in test [1] (4 h) of 85%. In addition, in test [2] (setting [3]), the IC50 was determined as 1.03 µM.
`O=C1NCc2cc(-c3ccc(-c4cncc(NS(=O)(=O)c5ccc(F)cc5F)c4)s3)ccc21` [Compound 48, 2,4-Difluoro-N-(5-(5-(1-oxoisoindolin-5-yl)thiophen-2-yl)pyridin-3-yl)benzenesulfonamide] returned an inhibition at 20 µM in test [1] (4 h) of 35%.
As to `O=C1NCc2ccc(-c3ccc(-c4cncc(NS(=O)(=O)c5ccc(F)cc5F)c4)s3)cc21` [Compound 49, 2,4-Difluoro-N-(5-(5-(3-oxoisoindolin-5-yl)thiophen-2-yl)pyridin-3-yl)benzenesulfonamide], 20 µM produced 49% inhibition in test [1] (4 h). Besides, the half-maximal inhibitory concentration (IC50) in test [2] (read-out: Jurkat IC50; lysis of Jurkat T lymphoma cells by recombinant perforin, 0.1% BSA, 30 min pre-incubation, 4 hours at 37° C.) was determined as 13.2 µM.
For `CN1Cc2cc(-c3ccc(-c4cncc(NS(=O)(=O)c5ccccc5)c4)s3)ccc2C1=O` [Compound 62, N-(5-(5-(2-Methyl-1-oxoisoindolin-5-yl)thiophen-2-yl)pyridin-3-yl)benzenesulphonamide], the inhibition at 20 µM in test [1] (4 h) was found to be 9.71 ± 2%. In addition, the IC50 in test [2] (setting [3]) was 8.46 µM.
In the case of `CN1Cc2cc(-c3ccc(-c4ccc(OC(F)(F)F)c(NS(=O)(=O)c5ccccn5)c4)s3)ccc2C1=O` [Compound 63.Na, N-(5-(5-(2-Methyl-1-oxoisoindolin-5-yl)thiophen-2-yl)-2-(trifluoromethoxy)phenyl)pyridine-2-sulfonamide], the “Inhibition of KHYG-1 at 20 μM (%)” value in test [1] is 77.07 ± 5%. For the same molecule, the IC50 in test [2] (setting [3]) turned out to be 19.6 µM.
For `CN1Cc2cc(-c3ccc(-c4cncc(NC(=S)NC(=O)c5ccc(F)cc5)c4)s3)ccc2C1=O` [Compound 68, 4-Fluoro-N-((5-(5-(2-methyl-1-oxoisoindolin-5-yl)thiophen-2-yl)pyridin-3-yl)carbamothioyl)benzamide], the IC50 in test [2] (setting [3]) came out at 15.9 µM.
The same measure, in the same setting: the result for `O=C1c2ccc(-c3ccc(-c4cncc(NS(=O)(=O)c5ccc(F)cc5F)c4)s3)cc2CN1CCN1CCOCC1` [Compound 69, 2,4-Difluoro-N-(5-(5-(2-(2-morpholinoethyl)-1-oxoisoindolin-5-yl)thiophen-2-yl)pyridin-3-yl)benzenesulfonamide] reads 17 µM.
As to `O=S(=O)(Nc1cncc(-c2ccc(-c3ccc4[nH]ccc4c3)s2)c1)c1ccc(F)cc1F` [Compound 71, N-(5-(5-(1H-indol-5-yl)thiophen-2-yl)pyridin-3-yl)-2,4-difluorobenzenesulfonamide], at 20 µM the inhibition in test [1] (4 h) was 87.7 ± 9%.
For the molecule `CN1Cc2cc(-c3ccc(-c4cncc(NS(=O)(=O)c5ccccc5C#N)c4)s3)ccc2C1=O` [Compound 79.Na, 2-Cyano-N-(5-(5-(2-methyl-1-oxoisoindolin-5-yl)thiophen-2-yl)pyridin-3-yl)benzenesulfonamides], the IC50 in test [2] (setting [3]) came out at 9.17 µM.
The same measure, in the same setting: the value for `Cc1cc(C)n(-c2ccc(S(=O)(=O)Nc3cncc(-c4ccc(-c5ccc6c(c5)CN(C)C6=O)s4)c3)cc2)n1` [Compound 80, 4-(3,5-Dimethyl-1H-pyrazol-1-yl)-N-(5-(5-(2-methyl-1-oxoisoindolin-5-yl)thiophen-2-yl)pyridin-3-yl)benzenesulfonamides] was 19.1 µM; that for `CN1Cc2cc(-c3ccc(-c4cncc(NS(=O)(=O)c5ccc(F)cc5F)c4)nc3)ccc2C1=O` [Compound 83, 2,4-Difluoro-N-(5-(2-methyl-1-oxoisoindolin-5-yl)-[2,3′-bipyridin]-5′-yl)benzenesulphonamide] was 8.17 µM; that for `CCOC(=O)c1ccc(S(=O)(=O)Nc2cncc(-c3ccc(-c4ccc5c(c4)CN(C)C5=O)s3)c2)cc1` [Compound 85, Ethyl 4-(N-(5-(5-(2-methyl-1-oxoisoindolin-5-yl)thiophen-2-yl)pyridin-3-yl)sulfamoyl)benzoate] was 19.4 µM.
Same read-out and setting: the value for `CN1Cc2cc(-c3ccc(-c4cnc(F)c(NS(=O)(=O)c5ccccn5)c4)s3)ccc2C1=O` [Compound 90, N-(2-Fluoro-5-(5-(2-methyl-1-oxoisoindolin-5-yl)thiophen-2-yl)pyridin-3-yl)pyridine-2-sulfonamide] was 4.1 µM; that for `COC(=O)c1cccc(S(=O)(=O)Nc2cncc(-c3ccc(-c4ccc5c(c4)CN(C)C5=O)s3)c2)c1` [Compound 91, Methyl 3-(N-(5-(5-(2-methyl-1-oxoisoindolin-5-yl)thiophen-2-yl)pyridin-3-yl)sulfamoyl)benzoate] was 7.77 µM.
